Reference: publication PMC6960228, “Ethoxysanguinarine, a Novel Direct Activator of AMP-Activated Protein Kinase, Induces Autophagy and Exhibits Therapeutic Potential in Breast Cancer Cells” (Frontiers in Pharmacology, 2020)

Assays:
[1] = system: MCF-7, MDA-MB-231, and MDA-MB-436 cells; experiment: Trypan blue exclusion assay; type: cell-based, human; details: dose- and time-dependent
Method: Cells were seeded into 96-well plate and pre-cultured for 24 h, then treated with Eth for 24. Cell cytotoxicity was determined by MTT assay. The absorbance was measured at 490 nm by automated microplated reader (BioTek Instruments, Inc., Winooski, VT, USA), and the cell death rate was calculated as followed: inhibition rate (%) = (average A490 of the control group − average A490 of the experimental group)/(average A490 of the control group − average A490 of the blank group) × 100%. Cell viability was estimated by trypan blue dye exclusion.

[2] = system: LC3 redistribution to autophagosomes in BC cells; experiment: GFP-LC3 autophagy assay (confocal microscopy); type: cell-based, human; details: pQCXIP-GFP-LC3 transfected cells, Eth 24 h
Excerpt: The cells were transfected with pQCXIP-GFP-LC3 plasmid using the Lipofectamine 3000 (Invitrogen; Thermo Fisher Scientific, Inc.) according to the recommended protocol by the manufacturer and then fixed in 4% paraformaldehyde. The percentage of cells with fluorescent dots representing GFP-LC3 translocation was counted. For visualization of cell nucleus, DAPI was used. Sections were observed using an Olympus laser scanning confocal microscope with imaging software (Olympus Fluoview FV-1000, Tokyo, Japan).
Figure 2 Eth induces autophagy in BC cells. (A): MCF-7, MDA-MB-231, or MDA-MB-436 cells were treated with increasing concentrations of Eth for 24 h. Western blot was performed using antibodies indicated. GAPDH was used as the loading control. (B): MCF-7 (MDA-MB-231 or MDA-MB-436) cells were treated with 2.4 µM (2.0 µM or 2.0 µM) Eth for the indicated times, and cell lysates were subjected to western blot assay. (C): MCF-7, MDA-MB-231, or MDA-MB-436 cells transfected with pQCXIP-GFP-LC3 plasmid were treated with increasing concentrations of Eth for 24 h, and assessed by immunoﬂuorescence analyses. Scale bar = 20 µm. (D): MDA-MB-231 or MDA-MB-436 cells transfected with pQCXIP-GFP-LC3 plasmid were treated with Eth (2.0 µM) and/or 3-MA (1 mM) for 24 h, and assessed by immunoﬂuorescence analyses. Scale bar = 20 µm. […] (F): MCF-7, MDA-MB-231, or MDA-MB-436 cells were treated with Eth (3.5 µM, 3.0 µM, or 3.0 µM) and/or 3-MA (1 mM) for 24 h and analyzed by MTT assay. (G): MCF-7, MDA-MB-231, or MDA-MB-436 cells were treated with Eth (2.4 µM, 2.0 µM, or 2.0 µM) and/or 3-MA (1 mM) for 24 h, and western blot was performed using antibodies indicated. *P < 0.05.
Figure 3 Eth induces autophagy through the AMPK/mTORC1 signaling. […] (D): MDA-MB-231 or MDA-MB-436 cells transfected with pQCXIP-GFP-LC3 plasmid were treated with Eth (2.0 µM) and/or CC (25 µM) for 24 h, and assessed by immunoﬂuorescence analyses. […] (G): MDA-MB-231 or MDA-MB-436 cells transfected with pQCXIP-GFP-LC3 plasmid were treated with Eth (1.0 µM or 1.6 µM) and/or Met (10 mM) for 24 h, and assessed by immunoﬂuorescence analyses. […]

[3] = system: MCF-7 xenografted and MDA-MB-231 xenografted murine models; experiment: Xenograft studies; type: in vivo, nude mice
Method: Female nude immunodeficient mice (nu/nu) (weighing ~16 g, 5-week-old) were purchased from Hunan SJA Laboratory Animal Co., Ltd. (Changsha, China), and maintained under specific pathogen-free conditions. Mice were given free access to sterile water and to a standard diet, and maintained under controlled conditions of temperature (22–24°C), humidity (40–70%), and light (12 h light-dark cycles). The present study was approved by Animal Ethics Committee of Hubei University of Medicine. The mice were subcutaneously injected with human BC MDA-MB-231 cells (5 × 10^6 cells which were suspended in 100 μL DMEM) into the right flank of each mouse. Treatments started when tumors reached a palpable size (0.5 cm in diameter). Mice were randomly divided into the following two groups: control group (vehicle; 0.8% DMSO, 12% cremophor, and 8% ethanol in normal saline; n = 8) and Eth-treated group (intraperitoneal injection of […] Eth; n = 8). The mice were treated 5 times per week for a total of […]. Caliper measurements of the longest perpendicular tumor diameters were performed twice a week to estimate the tumor volume, using the following formula: 4π/3 × (width/2)^2 × (length/2), representing the three-dimensional volume of an ellipse. Animals were sacrificed when tumors reached 1.5 cm or if the mice appeared moribund to prevent unnecessary morbidity to the mice.
To determine the anti-tumor effect of Eth on BC in vivo, MCF-7 xenografted and MDA-MB-231 xenografted murine models were generated. Once the tumors grew to a measurable size, each group was administered with vehicle (MCF-7 = 8, MDA-MB-231 = 8) or Eth (MCF-7 = 8; MDA-MB-231 = 8) i.p. at 2 mg/kg four times a week for 4 weeks. The tumor-bearing mice were humanely killed when their tumors reached 1.5 cm in diameter or when paralysis or major compromise in their quality of life occurred. […]
(A–B): Murine models were treated with vehicle, Eth (2 mg/kg) and the tumor volumes were calculated twice a week. **P < 0.01. […] (H–I): The expressions of LC3-II, AMPKα, and pAMPKα in xenograft tumor tissues were analyzed by western blot. […]

CCOC1c2c(ccc3c2OCO3)-c2ccc3cc4c(cc3c2N1C)OCO4 (centres unmarked) [Eth, Ethoxysanguinarine]
viable cells [1]: rapidly reduced viable
GFP-LC3 staining pattern [2]: speckled fluorescent staining pattern
tumor weight ([3]; i.p. 2 mg/kg four times a week for 4 weeks): significantly reduced the tumor weight
tumor growth compared with vehicle control ([3]; i.p. 2 mg/kg four times a week for 4 weeks, P < 0.05): efficiently repressed tumor growth
expression levels of pAMPK and LC-3II in tumor specimens ([3]; western blot of xenograft tumors): upregulated
